“Also recorded” adds a separate entry of the source.
Target: T1, mouse alpha 2B receptor (m α2B) (Mus musculus, UniProt P30545)
T1 construct: expressed in transfected cells
T1 sequence (P30545 1-453): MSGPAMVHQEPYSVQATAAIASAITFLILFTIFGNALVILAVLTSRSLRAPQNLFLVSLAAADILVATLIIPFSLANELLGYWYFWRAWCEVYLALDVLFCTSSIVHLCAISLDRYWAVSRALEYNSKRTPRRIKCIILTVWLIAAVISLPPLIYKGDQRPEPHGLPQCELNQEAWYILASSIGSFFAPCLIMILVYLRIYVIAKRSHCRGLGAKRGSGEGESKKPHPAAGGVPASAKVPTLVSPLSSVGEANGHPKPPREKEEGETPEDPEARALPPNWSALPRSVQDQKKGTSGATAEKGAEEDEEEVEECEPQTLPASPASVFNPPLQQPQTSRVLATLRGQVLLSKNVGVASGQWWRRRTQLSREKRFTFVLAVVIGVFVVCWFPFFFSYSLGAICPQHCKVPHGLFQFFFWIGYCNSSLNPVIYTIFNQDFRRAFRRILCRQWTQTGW
Assay: FLIPR calcium flux assay in HEK 293 m α2B/Gqi5 cells (Fluo-4 dye)
Type: cell-based
Conditions: for activity (ratio of peak height divided by background fluorescence): FIGS. 3A-3C, room temperature, 1 to 10^4 nM, 384 well, FLIPR buffer without HEPES, commercial screening company
Text: This example describes the methodology used in assaying compounds for the ability to modulate the α2B receptor in a high throughput assay format in which the “readout” is the measurement of a change in intracellular calcium flux due to the use of the “promiscuous” Gqi5 hybrid G-protein, linking the α2B receptor (normally coupled to the adenylyl cyclase pathway) to the PLC pathway. Changes in intracellular calcium flux are monitored using a dye that becomes fluorescent when it binds free Ca^++ ion.
HEK 293 cells are stably co-transfected with two plasmids, the first encoding the mouse alpha 2B receptor (m α2B), and the second encoding the hybrid Gqi5 protein. […] The nucleotide sequence encoding the human Gqi5 protein is contained in the reference Aiyar et al., Human AT1 receptor is a single copy gene: characterization in a stable cell line. Mol. Cell. […] These references are hereby all incorporated by reference herein. […]
Each well of cells (in a 96 well microtiter dish) is assayed for activity in the FLIPR assay using the Fluo-4® calcium indicator dye to detect calcium flux. The structure of this dye, which can be purchased from Molecular Probes, Inc., is as follows:
The cells are loaded with this dye using the manufacturer's recommendations, and washed 3× with FLIPR Buffer. Assays are conducted at room temperature (unless otherwise indicated in the following examples). […] Only cells releasing Ca++ into the cytosol of the cells (thereby permitting Ca++ binding to the Fluo-4 dye) will have increased fluorescent emission at 520 nm.
Images of the illuminated cells are captured with a charge-coupled device (CCD) camera; CCD technology is adapted for producing high-resolution images in conditions of ultra low light. Images are collected at the rate of 60 images/minute (1 image per second) in each well. After 10 seconds, 50 μl of the test compound is pipetted into the well, and further images are collected at 1 second intervals for an additional 60 seconds, then at 15 second intervals for 4 minutes. Test compounds are prepared from 10^-2 M stocks in DMSO. Compounds are diluted in the FLIPR buffer to a final DMSO concentration of about 1%.
All images are stored on a computer hard drive for later retrieval and analysis.

[1] = FIG. 2, second experiment, 35° C., norepinephrine standard
[2] = FIG. 1, assay carried out at 35° C., 96 well

Row | EC50 (FIG. 2, second experiment, 35° C., 96 well) [nM] | EC50 (32° C., FIG. 4B) [nM] | relative efficacy (32° C., FIG. 4B) [%] | EC50 (35° C., FIG. 4C) [nM] | relative efficacy (35° C., FIG. 4C) [%] | EC50 (37° C., FIG. 4D) [nM] | relative efficacy (37° C., FIG. 4D) [%] | EC50 [2] [nM] | relative efficacy compared to a norepinephrine standard [2] [%] | EC50 (Room Temp., FIG. 4A) [nM] | relative efficacy (Room Temp., FIG. 4A) [%] | Molecule | activity (ratio of peak height divided by background fluorescence) | relative efficacy [1] [%]
1 |  |  |  |  |  |  |  |  |  |  |  | COc1ccccc1N1CCN(CCN2C(=O)c3ccccc3C(C)(C)C2=O)CC1 [ARC 239, reference compound] | showed no ability to stimulate alpha 2B receptor activity | 
2 | 129 |  |  |  |  |  |  |  |  |  |  | O=C1C2=C(CCCC2)CCC1CC1CN=CN1 (centres unmarked) [Compound 3] |  | 31
3 |  | 337 | 32 | 318 | 31 | 65 | 30 | 242 | 35 | > 1000 |  | OCCNC(=S)NCc1cccc(Cl)c1F [Compound 2] | shows no activity; also recorded: very modest activity only at very high concentrations; also recorded: do not show activity to any significant degree | 
4 |  | 302 | 30 | 321 | 40 | 67 | 40 | 238 | 40 | 305 | 12 | c1ncc(CC2CCC3=C(CCCC3)C2)[nH]1 (centres unmarked) [Compound 1] | do not show activity to any significant degree | 
5 |  |  |  |  |  |  |  |  |  |  |  | norepinephrine [reference compound] | showed an activity ratio above background; also recorded: shows activity above background | 90

Source: patent publication US7655396B1, “Methods for detecting receptor modulator activity” (Allergan, Inc., priority 2006, dated 2010)
